From PubChem BioAssay (NCI)
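Assay format: 96-well plates, 48-hour exposure. GI50 = concentration required for 50% inhibition of growth. TGI: concentration producing complete growth inhibition.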

How the values were obtained:
Assay in all cases: NCI tumour cell line growth inhibition, 48 h
EKVX NSCLC = tested on: EKVX NSCLC
SK-MEL-28 melanoma = tested on: SK-MEL-28 melanoma
TK-10 renal = tested on: TK-10 renal
A549 NSCLC = tested on: A549 NSCLC
HOP-62 NSCLC = tested on: HOP-62 NSCLC
MALME-3M melanoma = tested on: MALME-3M melanoma
NCI/ADR-RES ovarian = tested on: NCI/ADR-RES ovarian
SR leukemia = tested on: SR leukemia
K-562 leukemia = tested on: K-562 leukemia
HOP-92 NSCLC = tested on: HOP-92 NSCLC

Row | Structure (SMILES) | GI50 (EKVX NSCLC) [µM] | TGI (EKVX NSCLC) [µM] | GI50 (SK-MEL-28 melanoma) [µM] | TGI (SK-MEL-28 melanoma) [µM] | GI50 (TK-10 renal) [µM] | TGI (TK-10 renal) [µM] | GI50 (A549 NSCLC) [µM] | TGI (A549 NSCLC) [µM] | GI50 (HOP-62 NSCLC) [µM] | TGI (HOP-62 NSCLC) [µM] | GI50 (MALME-3M melanoma) [nM] | TGI (MALME-3M melanoma) [µM] | GI50 (NCI/ADR-RES ovarian) [µM] | TGI (NCI/ADR-RES ovarian) [µM] | GI50 (SR leukemia) [µM] | TGI (SR leukemia) [µM] | GI50 (K-562 leukemia) [µM] | TGI (K-562 leukemia) [µM] | GI50 (HOP-92 NSCLC) [µM] | TGI (HOP-92 NSCLC) [µM]
1 | COc1ccc(-c2cn(-c3cc(OC)c(OC)c(OC)c3)c(SCc3ccccc3)n2)cc1OC | > 100 | > 100 | > 100 | > 100 | > 100 | > 100 | > 100 | > 100 | > 100 | > 100 | > 100000 | > 100 | > 100 | > 100 | 97.8 | > 100 | > 100 | > 100 | > 100 | > 100
2 | C=C1C(=O)O[C@H]2[C@H]1CC/C(COC(=O)NCc1cn(C)c3ccccc13)=C\CC[C@@]1(C)O[C@@H]21 | 1.85 | 4.32 | 1.43 | 3.01 | 1.8 | 3.43 | 2.17 | 7.14 |  |  | 1920 | 3.64 | 2.37 | 12.3 | 0.395 | 4.61 | 0.369 | 9.26 | 1.46 | 3.05
3 | O=C(CCCCCCCCC(=O)N/N=C\c1ccccc1O)N/N=C\c1ccccc1O | 1.53 | > 69.6 | 1.08 | > 100 | 1.87 | > 46.7 | 0.81 | > 25.2 | 0.418 | 4.72 | 566 | 17.7 | 0.514 | 25.4 | 0.16 | 12.9 | 0.398 | 27.8 | 0.216 | 0.889
4 | O=[N+]([O-])O.[Cu+2].[NH-]CC[NH-].[NH-]CC[NH-] | > 10 | > 10 | > 10 | > 10 |  |  | > 10 | > 10 | > 10 | > 10 | > 10000 | > 10 | > 10 | > 10 | > 10 | > 10 | > 10 | > 10 | > 10 | > 10
5 | CN(C)CCN1C(=O)c2ccccc2N(C)c2ccccc21 | > 100 | > 100 | > 100 | > 100 | > 100 | > 100 | > 100 | > 100 | > 100 | > 100 | > 100000 | > 100 | > 100 | > 100 | > 100 | > 100 | > 100 | > 100 | > 100 | > 100
6 | O=C1Nc2ccccc2/C1=C/C(=O)c1coc2c1C(=O)c1ccccc1C2=O |  |  | > 100 | > 100 | > 100 | > 100 | > 100 | > 100 |  |  | > 100000 | > 100 | > 100 | > 100 | 80.4 | > 100 | > 100 | > 100 | 59.7 | > 100
7 | N#CC(NC12CC3CC(CC(C3)C1)C2)c1ccc2c(c1)OCO2 (stereo not drawn) |  | > 100 |  | > 100 |  | > 100 |  | > 100 |  | > 100 |  | > 100 |  | > 100 |  | > 100 |  | > 100 |  | > 100
8 | COc1ccc(Br)c(N/N=C2\CCCNC2=O)c1 |  | 78.6 |  | > 100 |  | > 100 |  | > 100 |  | > 100 |  | > 100 |  |  |  | > 100 |  | > 100 |  | > 100
9 | Nc1c(C(=O)c2cccc(-c3ccncc3)c2)cnn1-c1ccc(F)cc1F |  |  | 16.7 | > 25 | > 15 | > 25 | 6.01 | > 25 | 9.3 | > 25 | 3980 | > 16.2 | 3.83 | > 25 | 1.05 | > 18.5 | 2.57 | > 25 | 4.71 | > 22.9
10 | Fc1ccc2c(c1)C1=NN(c3ccccc3)C(F)C1CO2 (stereo not drawn) | 5.64 | 16.4 | 9.51 | 22 | 12.5 | 35.6 | 7.96 | 23.9 | 19 | > 50 |  |  | 7.57 | 18.9 | 25.7 | > 50 | 17.6 | > 50 | 9.55 | 23.7
11 | CN1C(=Nc2ccccc2)SC1=Nc1ccccc1 |  | > 100 |  | > 100 |  | > 100 |  | > 100 |  | > 100 |  | 94.3 |  |  |  | > 100 |  | > 100 |  | 58.5
12 | COc1cc([C@@H]2OC[C@@H]3C(c4cc(OC)c5c(c4)OCO5)OC[C@@H]32)cc(OC)c1OC (stereo partly drawn) |  | > 100 |  | > 100 |  | > 100 |  | > 100 |  | > 100 |  |  |  | > 100 |  | > 100 |  | > 100 |  | > 100
13 | CCOc1ccccc1N1C(=O)C(=O)C(c2nc3ccccc3o2)C(=O)C1=O |  | > 100 |  | > 100 |  | > 100 |  | > 100 |  | > 100 |  | > 100 |  |  |  | > 100 |  | > 100 |  | > 100
14 | CC(=O)OCC1OC(n2cnc(C(N)=S)c2N)C(OC(C)=O)C1OC(C)=O (stereo not drawn) |  |  |  | > 100 |  | > 100 |  | > 100 |  | > 100 |  | > 100 |  | > 100 |  | > 100 |  |  |  | > 100
15 | Cc1cc2c(cc1C)N(C(=O)CCl)CC(=O)N2 |  |  | 3.89 | 14.8 | 2.11 | 3.59 | 8.23 | 26.7 | 3.3 | 12 | 1810 | 3.81 | 3.18 | > 100 | 2.65 | 7.04 | 3.39 | 29.4 | 1.59 | 3.93
16 | CP1(=O)CCCCC1 |  | > 100 |  | > 100 |  | > 100 |  | > 100 |  | > 100 |  | > 100 |  |  |  | > 100 |  | > 100 |  | > 100
17 | O=[N+]([O-])c1cc(C(F)(F)F)cc([N+](=O)[O-])c1CCl |  | 13.4 |  | 17.9 |  | 19.5 |  | 24.7 |  | 30.6 |  | 13.1 |  |  |  | 2.72 |  | 1.11 |  | 19.1
